Marks after values point to notes of the source that are not given here.
How the values were obtained:
[1] = system: patients with early symptomatic Alzheimer's disease; experiment: computerized Neuropsychological Test Battery (cNTB), randomized placebo controlled study; assay type: in vivo, human; parameters: key to cNTB Improvement: ns = non-significant effect; deter = deterioration compared to placebo; details: for cNTB: 5, 20 and 50 mg daily for 26 weeks, change from baseline
Procedure: DNA extraction and SNP genotyping were performed as follows: For 107 patients, whole blood was collected at the time of enrollment, and genomic DNA was extracted from peripheral lymphocytes using a commercial kit. Variant genotyping of a combined Whole Genome and Whole Exome sequencing, was performed. The detection of variants associated with the response of the treatment was performed through a genome wide association study (GWAS) analysis (which is a known case-control paradigm). […] The general case-control allelic test was performed through a Cochran-Armitage trend test. […] The stratification was assessed by a complete-linkage hierarchical clustering using the pairwise population concordance as a constraint. The SNP calling was done on the aligned BAM files using DRAGEN: […]

[2] = system: patients with early symptomatic Alzheimer's disease; experiment: Alzheimer's Disease Assessment Scale cognitive subscale (ADAS-Cog14), randomized placebo controlled study; assay type: in vivo, human; parameters: key to ADAS-Cog14 Improvement: ns = non-significant effect; deter = deterioration compared to placebo
[3] = system: patients with early symptomatic Alzheimer's disease; experiment: neuropsychiatric inventory (NPI), randomized placebo controlled study; assay type: in vivo, human; details: for NPI Improvement: 20 mg daily for 26 weeks
[4] = system: patients with early symptomatic Alzheimer's disease; experiment: sleep quality index (PSQI), randomized placebo controlled study; assay type: in vivo, human; details: non-carriers (N = 23); 20 mg daily for 26 weeks
5-HT-1b receptor = target: T1, 5-HT-1b receptor (Rattus norvegicus, UniProt P28564); experiment: receptor binding assay, radioligand 125I CYP, rat cerebral cortex; details: 5-HT1B
T1 construct: from tissue; host or cells: rat cerebral cortex
Procedure: (§1) For receptor binding assays, stably expressing 5-HT1a, 1b, 1d and 2c receptors cells (HEK-293, rat cerebral cortex, CHO and HEK-293, respectively) were incubated with 0.3 or 1 nM of their respective radioligand (^3H-OH-DPAT, ^125I CYP, ^3H serotonin and ^3H-mesulergine) alone or in the presence of 1 nM to 10 μM of piromelatine. The bound radioligand was assessed. Non-specific binding was evaluated under the reaction contained with 8-OH-PTA, serotonin and RS-10221 (8-[5-(2,4-Dimethoxy-5-(4-trifluoromethylphenylsulphonamido)phenyl-5-oxopentyl]-1,3,8-triazaspiro[4.5]decane-2,4-dione hydrochloride).

5-HT-2a receptor = 5-HT-2a receptor (Homo sapiens, UniProt P28223); experiment: receptor binding assay; details: 5-HT2A
5-HT-2b receptor = 5-HT-2b receptor (Homo sapiens, UniProt P41595); experiment: receptor binding assay; details: 5-HT2B
5-HT-2c receptor = target: T2, 5-HT-2c receptor (Homo sapiens, UniProt P28335); experiment: receptor binding assay, radioligand 3H-mesulergine, HEK-293 cells; details: 5-HT2C
T2 construct: expressed in transfected cells; host or cells: HEK-293
T2 sequence (P28335 33-458): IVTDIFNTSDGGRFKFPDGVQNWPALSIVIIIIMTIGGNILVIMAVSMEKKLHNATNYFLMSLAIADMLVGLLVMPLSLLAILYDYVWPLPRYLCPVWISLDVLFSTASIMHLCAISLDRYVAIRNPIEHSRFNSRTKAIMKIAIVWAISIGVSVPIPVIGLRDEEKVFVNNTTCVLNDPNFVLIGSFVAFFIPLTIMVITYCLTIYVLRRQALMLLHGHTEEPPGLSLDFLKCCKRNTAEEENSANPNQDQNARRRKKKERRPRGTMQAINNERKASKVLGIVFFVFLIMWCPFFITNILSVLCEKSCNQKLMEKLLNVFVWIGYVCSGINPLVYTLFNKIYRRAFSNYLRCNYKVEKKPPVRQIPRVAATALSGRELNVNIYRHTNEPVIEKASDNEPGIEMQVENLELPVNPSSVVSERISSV
Procedure: as §1

5-HT1a [5] = target: T3, 5-HT1a (Homo sapiens, UniProt P08908); experiment: functional assay, HTRF (cAMP or IP1); assay type: cell-based
T3 sequence (P08908 1-422): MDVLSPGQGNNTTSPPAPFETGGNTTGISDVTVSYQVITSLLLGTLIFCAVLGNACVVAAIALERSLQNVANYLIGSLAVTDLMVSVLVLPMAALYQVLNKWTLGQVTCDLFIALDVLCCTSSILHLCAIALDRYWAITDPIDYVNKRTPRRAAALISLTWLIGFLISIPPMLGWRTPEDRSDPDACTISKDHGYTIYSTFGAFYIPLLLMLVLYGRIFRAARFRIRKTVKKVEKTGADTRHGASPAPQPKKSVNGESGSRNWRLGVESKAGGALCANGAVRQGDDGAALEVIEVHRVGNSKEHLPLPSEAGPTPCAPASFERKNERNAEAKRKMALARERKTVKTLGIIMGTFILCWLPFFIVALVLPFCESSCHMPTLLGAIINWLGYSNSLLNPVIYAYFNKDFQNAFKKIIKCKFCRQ
From the text: (§2) For the functional assay, Homogeneous Time Resolved Fluorescence (HTRF) was used to measure cAMP or IP1 as products of the functional agonist or antagonist binding of 5-HT1a, 2a,2b, 2c, 4e, 6, 7 to their respective ligand (8-OG-DPAT or serotonin). Cellular dielectric spectroscopy was used to measure impedance as the product of the functional agonist or antagonist binding of 5HT1b and determine their respective ligand (serotonin).

5-HT1d = experiment: functional assay; assay type: cell-based; details: 5-H 1d
5HT1b = 5HT1b (Homo sapiens, UniProt P28222); experiment: functional assay, cellular dielectric spectroscopy (impedance); assay type: cell-based
From the text: as §2

[6] = system: 60 different ion channels and receptors of different neurotransmitters and hormones; experiment: full profile of binding parameters, 60 receptor assays; details: 10 μM; none of the 60 receptor assays significant
Procedure: A full profile of binding parameters to an additional 60 different ion channels and receptors of different neurotransmitters and hormones was performed (data not shown because none of the 60 receptor assays yielded a significant (>50%) inhibition by 10 μM of piromelatine).

[7] = system: patients with early symptomatic Alzheimer's disease; experiment: computerized Neuropsychological Test Battery (cNTB), randomized placebo controlled study; assay type: in vivo, human
5-HT1a [8] = target: T3, 5-HT1a; experiment: receptor binding assay, radioligand 3H-OH-DPAT, HEK-293 cells; parameters: expressed in transfected cells; host or cells: HEK-293; details: 5-HT1A
Procedure: as §1

[9] = locus polymorphism carriers, 5, 20 and 50 mg, 26 weeks, N = 19, vs placebo
[10] = locus polymorphism non-carriers, 5, 20 and 50 mg, 26 weeks, N = 59, vs placebo
[11] = whole study, n=352, 5, 20, and 50 mg daily for 6 months

5-HT-2b receptor, sequence (P41595 whole entry): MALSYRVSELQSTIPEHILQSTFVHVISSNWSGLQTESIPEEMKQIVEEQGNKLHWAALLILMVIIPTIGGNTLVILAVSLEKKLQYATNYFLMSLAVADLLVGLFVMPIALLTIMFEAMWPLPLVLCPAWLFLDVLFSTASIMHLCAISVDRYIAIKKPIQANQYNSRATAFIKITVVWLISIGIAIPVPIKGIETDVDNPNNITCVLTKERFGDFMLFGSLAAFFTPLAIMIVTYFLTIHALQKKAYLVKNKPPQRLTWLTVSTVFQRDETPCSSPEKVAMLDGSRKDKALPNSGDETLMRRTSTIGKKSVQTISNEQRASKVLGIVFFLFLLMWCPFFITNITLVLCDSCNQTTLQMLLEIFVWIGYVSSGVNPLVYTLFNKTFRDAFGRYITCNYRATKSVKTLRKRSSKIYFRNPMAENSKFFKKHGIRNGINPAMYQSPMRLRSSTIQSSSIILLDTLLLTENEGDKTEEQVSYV
5-HT-2a receptor, sequence (P28223 whole entry): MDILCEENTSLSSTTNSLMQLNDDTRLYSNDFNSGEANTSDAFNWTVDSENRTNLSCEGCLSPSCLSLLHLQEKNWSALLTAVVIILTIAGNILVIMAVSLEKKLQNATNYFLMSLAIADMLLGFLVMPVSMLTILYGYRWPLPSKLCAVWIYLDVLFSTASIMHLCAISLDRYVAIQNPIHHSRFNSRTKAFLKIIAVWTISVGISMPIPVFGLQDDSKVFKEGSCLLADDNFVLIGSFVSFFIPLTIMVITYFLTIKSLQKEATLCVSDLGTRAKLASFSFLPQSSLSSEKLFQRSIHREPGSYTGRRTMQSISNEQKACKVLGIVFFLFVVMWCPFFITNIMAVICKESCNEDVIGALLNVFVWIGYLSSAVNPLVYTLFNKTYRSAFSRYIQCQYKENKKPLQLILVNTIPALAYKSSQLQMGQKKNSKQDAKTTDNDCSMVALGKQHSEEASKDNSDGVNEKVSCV
5HT1b, sequence (P28222 whole entry, species assumed): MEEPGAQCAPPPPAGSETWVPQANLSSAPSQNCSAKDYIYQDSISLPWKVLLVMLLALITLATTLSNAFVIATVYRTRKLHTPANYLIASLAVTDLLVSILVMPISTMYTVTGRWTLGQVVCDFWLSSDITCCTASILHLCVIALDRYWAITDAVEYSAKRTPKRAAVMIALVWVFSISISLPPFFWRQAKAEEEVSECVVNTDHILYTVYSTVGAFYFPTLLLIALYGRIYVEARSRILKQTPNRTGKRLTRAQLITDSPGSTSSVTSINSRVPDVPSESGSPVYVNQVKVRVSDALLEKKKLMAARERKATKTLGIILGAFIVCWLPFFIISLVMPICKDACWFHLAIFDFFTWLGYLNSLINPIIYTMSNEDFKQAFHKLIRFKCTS
T1 sequence (P28564 whole entry): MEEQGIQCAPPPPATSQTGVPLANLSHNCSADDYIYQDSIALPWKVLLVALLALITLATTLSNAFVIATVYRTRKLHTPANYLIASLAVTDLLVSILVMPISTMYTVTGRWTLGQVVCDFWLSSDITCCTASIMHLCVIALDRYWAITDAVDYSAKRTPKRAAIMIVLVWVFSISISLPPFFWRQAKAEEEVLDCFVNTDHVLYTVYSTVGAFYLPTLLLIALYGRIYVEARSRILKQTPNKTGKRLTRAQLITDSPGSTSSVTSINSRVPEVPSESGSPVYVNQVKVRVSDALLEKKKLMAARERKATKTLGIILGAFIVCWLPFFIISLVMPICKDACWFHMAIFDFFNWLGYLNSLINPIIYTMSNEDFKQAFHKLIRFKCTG

COc1ccc2[nH]cc(CCNC(=O)c3cc(=O)cco3)c2c1 [piromelatine, N-(2-(5-methoxy-1H-indol-3-yl)ethyl)-4-oxo-4H-pyran-2-carboxamide]
cNTB Improvement ([1]; carriers (N = 12), 20 mg daily for 26 weeks): yes
cNTB attention domain composite score ([1]; carriers, 5 mg): improved
cNTB episodic memory domain composite score ([1]; carriers, 5 mg): improved
cNTB episodic memory domain composite score ([1]; carriers, 20 mg): improved
cNTB ([1]; locus polymorphism carriers, N = 19): 0.38*
cNTB Improvement [1, 9]: yes
cNTB ([1]; locus polymorphism non-carriers, N = 59): −0.04
cNTB Improvement [1, 10]: ns
ADAS Cog14, Cohen's d vs placebo > 0.2 ([2]; carriers, 5 mg daily for 26 weeks): improvement
ADAS-Cog14 ([2]; locus polymorphism carriers, 5, 20 and 50 mg daily for 26 weeks, N = 19): 0.63*
ADAS-Cog14 Improvement [2, 9]: deter
ADAS-Cog14 Improvement [2, 10]: yes
ADAS-Cog14 Improvement ([2]; non-carriers (N = 23), 20 mg daily for 26 weeks): yes
ADAS Cog14, Cohen's d vs placebo > 0.20 ([2]; non-carriers, 5 mg daily for 26 weeks): no improvement
ADAS-Cog14, drug vs placebo [2, 11]: no statistically significant differences
NPI Improvement ([3]; carriers (N = 12)): yes
NPI aberrant movements ([3]; carriers, 20 mg): improvement
NPI Improvement ([3]; non-carriers (N = 23)): yes
PSQI Improvement [4]: yes
affinity in words (5-HT-1b receptor): low affinity
affinity in words (5-HT-2a receptor): low affinity
affinity in words (5-HT-2b receptor): low affinity
affinity in words (5-HT-2c receptor): low affinity
agonist activity (5-HT1a [5]): moderate agonist activity
agonist activity (5-HT1d): moderate agonist activity
agonist activity (5HT1b): Low agonist activity
inhibition [6]: ≤ 50%
cNTB attention domain composite score ([7]; carriers, 20 mg): improved
global composite score of the cNTB, drug vs placebo [7, 11]: no statistically significant differences
affinity in words (5-HT1a [8]): low affinity

— patent US11840731B2, “Method for diagnosing and treating subjects having single nucleotide polymorphisms in chromosome 2, 2:107,510,000-107,540,000 locus” (NEURIM PHARMACEUTICALS (1991) LTD., priority 2021, dated 2023)
